Tests used:
guinea pigs [1] = test: Citric acid-induced cough in conscious guinea pigs (whole body plethysmography); format: in vivo, guinea pig; conditions: 100 mg/kg in DMSO intraperitoneally, 1 h before citric acid (0.6 M) aerosol; coughs counted over 15 min; vs vehicle group; FIG. 2
Description: (§1) In order to test the effectiveness of enaminone ester E121 as an antitussive, two groups of guinea pigs were established. Group 1 was a control group, which consisted of ten guinea pigs, who were administered vehicle only (100% dimethyl sulfoxide [DMSO]) intraperitoneally. Group 2 was a test group, which consisted of ten guinea pigs, who were administered enaminone E121 (100 mg/kg in DMSO) intraperitoneally (i.e., via intraperitoneal injection). Each group was separately placed in a transparent whole body plythesmography box (Buxco, Troy, N.Y.) for testing one hour after administration of the vehicle or the enaminone ester E121, respectively.
Each group was allowed a settling period in the whole body plethysmograph, after which baseline airway function was recorded for 2 minutes before administration of an aerosol. Animals in each group were then exposed to citric acid (0.6 M) aerosol for 10 minutes, during which cough and airway function were recorded, and for an additional 5 minutes thereafter (a total of 15 minutes). The aerosols were generated using a DeVilbiss aerogen ultrasonic nebulizer (DeVilbiss, Somerset, Pa.), the nebulized spray having an aerodynamic mass median diameter droplet size range of […] (manufacturer's indication). […]
Coughs were recorded from conscious, unrestrained guinea pigs manually by a trained observer as confirmation. […]

guinea pigs [2] = test: Airway obstruction (enhanced pause, Penh) during citric acid aerosol exposure; format: in vivo, guinea pig; conditions: 100 mg/kg in DMSO intraperitoneally; citric acid (0.6 M) aerosol; vs vehicle group; FIG. 3
Description: as §1
Each group was allowed a settling period in the whole body plethysmograph, after which baseline airway function was recorded for 2 minutes before administration of an aerosol. Animals in each group were then exposed to citric acid (0.6 M) aerosol for 10 minutes, during which cough and airway function were recorded, and for an additional 5 minutes thereafter (a total of 15 minutes). […]
The pressure differences between the main chamber of the whole body plethysmograph containing the animals and a reference chamber (box pressure signal) were measured. […]

[3] = tested on: guinea pig bronchial preparations pre-contracted with carbachol; test: Agonist-induced relaxation of guinea pig bronchial ring preparations pre-contracted with carbachol; conditions: concentration response curves repeated after one hour; compared with salbutamol
Description: Two groups of guinea pigs, each group containing twelve guinea pigs, were decapitated under light ether anesthesia and the tracheas were dissected out with the lungs en bloc. The origin of bifurcation of the trachea into bronchioles was identified after removal of the excess connective tissue. The isolated bronchioles were cut into ring segments of 4 mm in length. The preparations were mounted in organ baths containing 25 mL Krebs-Henseleit (KH) solution at pH 7.4, maintained at 37° C. and aerated with a 95% O2 and 5% CO2 mixture. The preparations were left to stabilize for 45 minutes, changing the KH solution at 15-minute intervals. A pre-tension of 0.75 gm was applied, and a stabilization period of 45 minutes was allowed until a stable baseline tone was obtained. Isolated segments of the bronchioles were pre-contracted with carbachol (3 μM). Responses of the carbachol pre-contracted bronchial ring segments to the different agonists were determined by measurement of changes in the isometric tension, using computerized automatic organ bath analyzing instruments.
Bronchodilator responses to salbutamol (10^−9-3×10^−4 M) and enaminone ester E121 (10^−9-10^−4 M) were investigated on different preparations of the bronchioles. […] The bronchodilator responses were expressed as a percentage reduction of the carbachol induced pre-contraction. […]

Solid-state stability = format: physicochemical; conditions: room temperature

CCOC(=O)C1C(=O)C=C(Nc2ccc(Cl)cc2)CC1C (stereo not shown) [enaminone E121, ethyl 4-[(4-chlorophenyl)amino]-6-methyl-2-oxocyclohex-3-en-1-oate]
number of coughs (guinea pigs [1]): substantially lower incidence of coughs | enhanced pause (Penh), bronchoconstriction or airway obstruction (guinea pigs [2]): less bronchoconstriction or airway obstruction | tachyphylaxis of airway smooth muscle relaxant effect [3]: lower levels of tachyphalaxis than salbutamol | stability of the solid (Solid-state stability): stable solid at room temperature

From patent US9238019B2, “Antitussive and bronchodilator uses for enaminone ester” (UNIVERSITY OF KUWAIT, priority 2006, dated 2016)
